Measurements reported in patent US20080113934A1, “USE OF DIPYRIDAMOLE OR MOPIDAMOL FOR TREATMENT AND PREVENTION OF FIBRIN-DEPENDENT MICROCIRCULATION DISORDERS” (priority 1999, published 2008).
Entries after “also recorded” stand apart in the source; their conditions may differ.

Tests used:
[1] = system: common carotid artery of rabbits (angioplasty site); assay: Study using radiolabeled platelets and fibrinogen in vivo after balloon angioplasty of the carotid artery; settings: rabbit carotid artery, monitored four hours after angioplasty; heparin 100 U/kg bolus followed by 25 U/kg/h infusion; dipyridamole 0.25 mg/kg followed by 0.45 mg/kg/hr
Procedure: FIG. 1: Simultaneous detection of ^99Tc labeled platelets and ^123I-labeled fibrinogen at one minute intervals after angioplasty of the common carotid artery of rabbits. […] No injury measurements showing constant radioactivity.
FIG. 2: Deposition of radioactive labeled platelets (^99Tc) and fibrinogen (123I) at angioplasty site after treatment with dipyridamole (0.25 mg/kg followed by 0.45 mg/kg/hr).
The effects of dipyridamole and heparin were investigated using platelets radiolabeled with ^99Tc and fibrinogen labeled with ^123I. The method is described in Lorenz, M. et al., Nuclear Instruments and Methods in Physics Research A., 1994, 353:448-452. An energy-sensitive solid-state radiation detector was placed to surround each carotid artery in rabbits. After inducing injury through balloon angioplasty, the accretion of platelets and fibrinogen was monitored for four hours. […] Accretion was not detected in radiolabeled platelets injected 30 minutes after injury; apparently the angioplasty site had been passivated by endogenous platelet adherence. […] (FIG. 2).

[2] = ESPS-2; compared with low-dose aspirin / aspirin alone; cited from earlier work

heparin
accretion (deposition) of 99Tc labeled platelets at angioplasty site [1]: reduction of platelet as well as fibrinogen accretion; also recorded: reduced accumulation of both platelets and fibrinogen
accretion (deposition) of 123I-labeled fibrinogen at angioplasty site [1]: reduction of platelet as well as fibrinogen accretion; also recorded: reduced accumulation of both platelets and fibrinogen

OCCN(CCO)c1nc(N2CCCCC2)c2nc(N(CCO)CCO)nc(N3CCCCC3)c2n1 [dipyridamole, 2,6-bis(diethanolamino)-4,8-dipiperidino-pyrimido[5,4-d]pyrimidine]
reduction of stroke risk [2]: as effective as low-dose aspirin
accretion (deposition) of 99Tc labeled platelets at angioplasty site [1]: reduced; also recorded: reduction in platelet aggregation which was similar to that seen with heparin
accretion (deposition) of 123I-labeled fibrinogen at angioplasty site [1]: almost entirely blocked; also recorded: far greater with dipyridamole than with heparin
